Results published in US9464082B2, “Aryl and arylalkyl substituted pyrazolyl and pyrimidinyl tricyclic enones as antioxidant inflammation modulators” (AbbVie Inc., priority 2014, dated 2016).

System: IFNγ-Induced NO Production
Experiment: Nitric Oxide Suppression Assay (Suppression of IFNγ-Induced NO Production)
Format: cell-based
Settings: RAW264.7; RAW 264.7 mouse macrophage cells; 2 hour pre-treatment with compound (3 μM to 0.3 nM, 10 point curve); 20 ng/mL interferon gamma, ~18 hour; Griess detection; n=2-3 in duplicates
Method: RAW 264.7, a mouse macrophage cell line, was obtained from American Type Culture Collection (Manassas Va.) and maintained in the log phase of growth in Dulbecco's Modified Eagle's Medium (DMEM), 10% heat inactivated fetal calf serum and 100 units/mL antibiotic-antimycotic (AA). Cells were cultured and maintained in a humidified incubator at 37° C. under 5% CO2 and 95% air. Cells were sub-cultured every 3 days by scraping and were not used beyond passage 20. All cell culture supplies were obtained from Life Technologies (Grand Island, N.Y.).
RAW 264.7 cells were plated 1 day in advance of experiment at a concentration of 80,000 cells/well onto CellBIND® 96 well plates (Corning, N.Y.) in a total volume of 100 μL. The next day, pre-treat cells with compounds (from 3 μM to 0.3 nM serially diluted in a 10 point curve) from a 10× stock by adding 10 μL per well in complete DMEM media containing 10% fetal calf serum. The plates were centrifuged for 3 minutes at 400×g at room temperature followed by 2 hour incubation at 37° C. The cells were then incubated overnight at 37° C. with 10 μL of the insult, interferon gamma (R&D Systems, Minneapolis, Minn.), from a 10× stock for a final concentration of 20 ng/mL. The plates were centrifuged for 3 minutes at 400×g at room temperature followed by ˜18 hour incubation at 37° C. The following day, transfer 50 μL cell culture supernatant from each well into a clear bottom 96 well plate and follow the instructions from Promega's Griess Detection Kit #G2930 (Madison, Wis.) which involves the addition of 50 μL of the provided sulfanilamide solution for a 5-10 minute incubation at room temperature. Next add 50 μL of the provided N-1-napthylethylenediamine dihydrochloride (NED) solution for a 5-10 minute incubation at room temperature and protected from light. If any air bubbles were introduced into the well, the plates need to be centrifuged for 5 minutes at 400×g at room temperature to avoid interference with absorbance readings. The plates were read for absorbance within 30 minutes with a filter between 520 nm and 550 nm.
For the ability of compounds to suppress the increase in nitric oxide release, the percent maximal intensity of nitric oxide detected in each well was normalized to that induced by the peak value for 20 ng/mL of interferon gamma alone and plotted against the compound concentration to calculate IC50 values and to control for plate-to-plate variability. Concentration-response data were analyzed using GraphPad Prism (San Diego, Calif.); the IC50 values were derived from a single curve fit to the mean data of n=2-3, in duplicates.
All compounds were dissolved in dimethyl sulfoxide at 10 mM stock solutions and tested at a concentration that the dimethyl sulfoxide levels never exceeded 1%.

Row | SMILES | IC50 [nM]
1 | Cc1nc(-c2cncnc2)c2c(n1)[C@@]1(c3cccc(F)c3)C=C(C#N)C(=O)[C@@H](C)[C@@H]1CC2 [Example 69, (6aS,7S,10aR)-10a-(3-fluorophenyl)-2,7-dimethyl-8-oxo-4-(pyrimidin-5-yl)-5,6,6a,7,8,10a-hexahydrobenzo[h]quinazoline-9-carbonitrile] | 35.8
2 | C[C@@H]1C(=O)C(C#N)=C[C@]2(c3cccc(OCc4ccccc4)c3)c3ncncc3CC[C@@H]12 [Example 128, (6aS,7S,10aR)-10a-[3-(benzyloxy)phenyl]-7-methyl-8-oxo-5,6,6a,7,8,10a-hexahydrobenzo[h]quinazoline-9-carbonitrile] | 7.82
3 | C[C@@H]1C(=O)C(C#N)=C[C@]2(c3ccccc3)c3nn(C)c(-c4ccc(-c5ccncc5)cc4)c3CC[C@@H]12 [Example 143, (5aS,6S,9aR)-2,6-dimethyl-7-oxo-9a-phenyl-3-[4-(pyridin-4-yl)phenyl]-4,5,5a,6,7,9a-hexahydro-2H-benzo[g]indazole-8-carbonitrile] | 69.3
4 | Cc1nc(-c2ccc(-c3cncnc3)cc2)c2c(n1)[C@@]1(c3ccccc3)C=C(C(N)=O)C(=O)[C@@H](C)[C@@H]1CC2 [Example 145, (6aS,7S,10aR)-2,7-dimethyl-8-oxo-10a-phenyl-4-[4-(pyrimidin-5-yl)phenyl]-5,6,6a,7,8,10a-hexahydrobenzo[h]quinazoline-9-carboxamide] | > 1000
5 | C[C@@H]1C(=O)C(C#N)=C[C@]2(c3ccccc3)c3n[nH]cc3CC[C@@H]12 [Example 24, (5aS,6S,9aR)-6-methyl-7-oxo-9a-phenyl-4,5,5a,6,7,9a-hexahydro-2H-benzo[g]indazole-8-carbonitrile] | 67.7
6 | C[C@@H]1C(=O)C(C#N)=C[C@]2(c3ccccc3)c3nc(-c4ccc(C(=O)N(C)C)cc4)ncc3CC[C@@H]12 [Example 138, 4-[(6aS,7S,10aR)-9-cyano-7-methyl-8-oxo-10a-phenyl-5,6,6a,7,8,10a-hexahydrobenzo[h]quinazolin-2-yl]-N,N-dimethylbenzamide] | 5.26
7 | Cc1ncc2c(n1)[C@@]1(c3ccccc3)C=C(C#N)C(=O)[C@@H](C)[C@@H]1CC2 (racemic) [Example 33, rac-(6aS,7S,10aR)-2,7-dimethyl-8-oxo-10a-phenyl-5,6,6a,7,8,10a-hexahydrobenzo[h]quinazoline-9-carbonitrile] | 23
8 | COC(=O)c1cccc([C@]23C=C(C#N)C(=O)[C@@H](C)[C@@H]2CCc2cncnc23)c1 [Example 59, methyl 3-[(6aS,7S,10aR)-9-cyano-7-methyl-8-oxo-6,6a,7,8-tetrahydrobenzo[h]quinazolin-10a(5H)-yl]benzoate] | 6.53
9 | Cc1nc(-c2c[nH]c(=O)[nH]c2=O)c2c(n1)[C@@]1(c3ccc(F)cc3)C=C(C#N)C(=O)[C@@H](C)[C@@H]1CC2 [Example 94, (6aS,7S,10aR)-4-(2,4-dioxo-1,2,3,4-tetrahydropyrimidin-5-yl)-10a-(4-fluorophenyl)-2,7-dimethyl-8-oxo-5,6,6a,7,8,10a-hexahydrobenzo[h]quinazoline-9-carbonitrile] | 639
10 | C[C@@H]1C(=O)C(C#N)=C[C@]2(c3ccccc3)c3nc(Nc4ccccc4)ncc3CC[C@@H]12 (racemic) [Example 9, rac-(6aS,7S,10aR)-2-anilino-7-methyl-8-oxo-10a-phenyl-5,6,6a,7,8,10a-hexahydrobenzo[h]quinazoline-9-carbonitrile] | 5.99
11 | COC(=O)CCc1cccc(-c2nc(C)nc3c2CC[C@H]2[C@H](C)C(=O)C(C#N)=C[C@]32c2ccccc2)c1 [Example 154, methyl 3-{3-[(6aS,7S,10aR)-9-cyano-2,7-dimethyl-8-oxo-10a-phenyl-5,6,6a,7,8,10a-hexahydrobenzo[h]quinazolin-4-yl]phenyl}propanoate] | 47.5
12 | Cc1nc(-c2ccc(-c3ccncc3)cc2)c2c(n1)[C@@]1(c3ccccc3)C=C(C#N)C(=O)[C@@H](C)[C@@H]1CC2 [Example 122, (6aS,7S,10aR)-2,7-dimethyl-8-oxo-10a-phenyl-4-[4-(pyridin-4-yl)phenyl]-5,6,6a,7,8,10a-hexahydrobenzo[h]quinazoline-9-carbonitrile] | 12.7
